From PubChem BioAssay AID488890 (Southern Research Specialized Biocontainment Screening …, 2010)
Records with an inconclusive call do not appear. Activity calls are given as the source filed them. The rule behind the calls is not given here.

The compounds below were run on Mycobacterium tuberculosis non-replicating, growth inhibition (assay: growth inhibition of non-replicating M. tuberculosis (AID 488890)).

Q: Which IC50 does the source give for COC(=O)COc1ccc2cc(-c3ccc(OC)cc3)c(=O)oc2c1 here?
A: The IC50 was 1.41 µM.

Q: With COC(=O)COc1ccc(-c2ccc(F)cc2)cc1C=O as the compound, how does the IC50 read?
A: The IC50 was 5.82 µM.

Q: For O=C(N/N=C/c1ccc([N+](=O)[O-])s1)c1cccnc1, which IC50 is on record?
A: The IC50 was 4.48 µM.

Q: Cc1ccsc1C(=O)OCC(=O)Nc1nnc(-c2ccccc2)o1 was tested. Which IC50 did it give?
A: Its IC50 is 18.2 µM (inactive).

Q: With Cn1cnc([N+](=O)[O-])c1Sc1ccc(Br)cc1 as the compound, how does the IC50 read?
A: Its IC50 is 23.6 µM (inactive).

Q: Which IC50 does the source give for CC1=NN(C(=O)c2ccoc2C)C(O)(C(F)(F)F)C1 (configuration not stated) here?
A: Its IC50 is 1.63 µM.

Q: CCC(=O)N/N=C/c1ccc(-c2ccc(Cl)cc2)o1 was tested. Which IC50 did it give?
A: The IC50 was 8.36 µM.

Q: How did the IC50 turn out when Cc1onc(-c2ccccc2)c1C(=O)O/N=C(\N)c1ccc([N+](=O)[O-])o1 was run?
A: The IC50 was 25.8 µM (inactive).

Q: Which IC50 does the source give for Cc1onc(-c2ccccc2Cl)c1C(=O)O/N=C(\N)c1ccc([N+](=O)[O-])o1 here?
A: Its IC50 is 4.55 µM.

Q: For CCOC(=O)N1CCC(N2CCCC(C(=O)c3ccc4cc(OC)ccc4c3)C2)CC1 (configuration not stated), which IC50 is on record?
A: Its IC50 is 18.7 µM (inactive).

Q: Which IC50 does the source give for CCn1c(/C=N/NC(=O)c2ccc(OC)cc2)nc2ccccc21 here?
A: Its IC50 is 7.78 µM.

Q: Which IC50 does the source give for O=C(OCc1c(Cl)cccc1Cl)c1ccccn1 here?
A: Its IC50 is 6.6 µM.

Q: How did the IC50 turn out when O=C(CCNc1ccc(F)cc1)c1ccco1 was run?
A: Its IC50 is 6.12 µM.

Q: CC1CCc2c(sc3nc(CSc4ncn[nH]4)[nH]c(=O)c23)C1 (configuration not stated) was tested. Which IC50 did it give?
A: Its IC50 is 14.4 µM (inactive).

Q: With Cc1cc(C(=O)NNc2ccc(Cl)cc2)no1 as the compound, how does the IC50 read?
A: The IC50 was 1.61 µM.

Q: Which IC50 does the source give for O=C(OCC(=O)N1CCC(c2ccccc2)=N1)c1ccc([N+](=O)[O-])s1 here?
A: The IC50 was 0.61 µM.

Q: With O=C(COc1ccc(Cl)cc1)Nc1ccc2[nH]ncc2c1 as the compound, how does the IC50 read?
A: Its IC50 is 26.5 µM (inactive).

Q: Which IC50 does the source give for O=C1C=CC(O)(c2cc(=O)c3c(O)cc(O)cc3o2)C=C1 here?
A: The IC50 was 2.61 µM.

Q: Which IC50 does the source give for O=C(O)CCCCCN1C(=O)CSC1=S here?
A: The IC50 was 19.9 µM (inactive).

Q: Which IC50 does the source give for Cc1cc(Br)ccc1OCC(=O)NNC(=O)C(=O)Nc1ccccc1 here?
A: The IC50 was 1.22 µM.

Q: How did the IC50 turn out when COc1ccc(-c2nnn(Cc3ccccc3)n2)cc1 was run?
A: The IC50 was 12.4 µM (inactive).

Q: With COc1cccc(C(=O)Nc2nnc(-c3ccc(F)cc3)o2)c1 as the compound, how does the IC50 read?
A: The IC50 was 8.17 µM.

Q: O=C(Nc1ccccn1)c1ccc([N+](=O)[O-])o1 was tested. Which IC50 did it give?
A: The IC50 was 0.77 µM.

Q: For COc1c[nH]n(C2CCCCC2)c(=O)c1=O, which IC50 is on record?
A: The IC50 was 8.76 µM.

Q: With Cc1ccc(/C=C2\SC(N3CCCC3)=NC2=O)cc1 as the compound, how does the IC50 read?
A: The IC50 was 6.15 µM.

Q: COc1cccc(/C=C2\SC(=S)N(CCC(=O)N3CCCCC3)C2=O)c1 was tested. Which IC50 did it give?
A: Its IC50 is 9.08 µM.

Q: CCN1CCC(=NNC(=O)c2ccco2)CC1 was tested. Which IC50 did it give?
A: Its IC50 is 42.6 µM (inactive).

Q: CC(CN1CCOCC1)OC(=O)c1ccc(Br)cc1 (configuration not stated) was tested. Which IC50 did it give?
A: Its IC50 is 1.51 µM.

Q: With O=C(OCC(=O)N1CCc2ccccc2C1)c1cccc([N+](=O)[O-])c1 as the compound, how does the IC50 read?
A: Its IC50 is 9.6 µM.

Q: Which IC50 does the source give for Cc1ccc(-c2ccc(/C=N/NC(=O)CN3CCOCC3)o2)cc1[N+](=O)[O-] here?
A: The IC50 was 32.2 µM (inactive).

Q: With CCOC(=O)C(=O)Cc1nc2ccccc2s1 as the compound, how does the IC50 read?
A: Its IC50 is 6.54 µM.

Q: CC1CCC/C(=C\Nc2ccc(C(=O)O)c(O)c2)C1=O (configuration not stated) was tested. Which IC50 did it give?
A: Its IC50 is less than 0.1 µM.

Q: Which IC50 does the source give for CCc1nnc(NC(=O)CN2CCN(c3ccccc3F)CC2)s1 here?
A: The IC50 was 29.2 µM (inactive).

Q: Which IC50 does the source give for O=C(N/N=C/c1cc([N+](=O)[O-])ccc1O)C12CC3CC(CC(C3)C1)C2 here?
A: The IC50 was 1.15 µM.

Q: Which IC50 does the source give for CN(CCCCOc1ccc(F)cc1)Cc1ccccc1 here?
A: The IC50 was 22.9 µM (inactive).

Q: With CCCCCOc1ccc(CSC2=NCCN2)cc1[N+](=O)[O-] as the compound, how does the IC50 read?
A: The IC50 was 23.4 µM (inactive).

Q: CCOC(=O)Cc1csc(NC(=O)c2c(O)c3ccccc3n(CCC(C)C)c2=O)n1 was tested. Which IC50 did it give?
A: The IC50 was 1.77 µM.

Q: For O=C(NNC(=O)C12CC3CC(CC(C3)C1)C2)c1cnccn1, which IC50 is on record?
A: Its IC50 is 32.2 µM (inactive).

Q: O=c1cc(-c2ccncc2)oc2c1ccc1ccccc12 was tested. Which IC50 did it give?
A: The IC50 was 22.3 µM (inactive).

Q: How did the IC50 turn out when O=C(OCc1ccc([N+](=O)[O-])cc1)c1cc2ccccc2oc1=O was run?
A: The IC50 was 12.5 µM (inactive).

Q: O=C1CC(N2CCC(c3nc4ccccc4o3)CC2)C(=O)N1 (configuration not stated) was tested. Which IC50 did it give?
A: Its IC50 is 16.3 µM (inactive).

Q: Which IC50 does the source give for O=C(CC1CCCCC1)NCc1ccccc1 here?
A: Its IC50 is 5.92 µM.

Q: How did the IC50 turn out when O=C(NNC(=O)c1cnccn1)c1ccc(Cl)c(Cl)c1 was run?
A: The IC50 was 3.23 µM.

Q: O=C(NC1CCCC1)c1nc2c(nnn2Cc2cccc(Cl)c2)c(=O)[nH]1 was tested. Which IC50 did it give?
A: The IC50 was 19.8 µM (inactive).

Q: How did the IC50 turn out when O=[N+]([O-])c1cc(N=Nc2ccc3ccccc3c2)ccc1O was run?
A: Its IC50 is 10.2 µM (inactive).

Q: With CCN(CC)S(=O)(=O)c1ccc(C(=O)OCn2nnc3ccccc3c2=O)cc1 as the compound, how does the IC50 read?
A: The IC50 was 15.4 µM (inactive).

Q: Which IC50 does the source give for O=C(Nc1ccc(F)cc1F)c1cc2ccccc2oc1=O here?
A: Its IC50 is 25.1 µM (inactive).

Q: With CS(=O)(=O)c1sc(C#N)c2c1C(=O)CC(c1ccccc1)C2 (configuration not stated) as the compound, how does the IC50 read?
A: Its IC50 is 0.82 µM.

Q: For O=C(Nc1nnc(-c2ccc(Br)cc2)o1)c1ccco1, which IC50 is on record?
A: The IC50 was 11.4 µM (inactive).

Q: Which IC50 does the source give for O=C(CCC1CCCC1)NCc1ccccn1 here?
A: Its IC50 is 3.4 µM.

Q: How did the IC50 turn out when CC1(C(=O)NC(=S)NNC(=O)c2ccncc2)CCCCC1 was run?
A: Its IC50 is 0.94 µM.

Q: For COc1ccc(CN2C(=O)/C(=C/c3ccncc3)SC2=S)cc1, which IC50 is on record?
A: Its IC50 is 39.3 µM (inactive).

Q: How did the IC50 turn out when CN1C/C(=C/c2cccnc2)C(=O)/C(=C/c2cccnc2)C1 was run?
A: The IC50 was 23.5 µM (inactive).

Q: With O=C1CC(N2CCN(c3ccccc3)CC2)C(=O)N1CCc1ccccc1 (configuration not stated) as the compound, how does the IC50 read?
A: The IC50 was 14 µM (inactive).

Q: COc1ccc(CN2CCC(C(=O)Nc3ccc(Oc4cccnc4)cc3)CC2)c(C)c1C was tested. Which IC50 did it give?
A: Its IC50 is 7.54 µM.

Q: How did the IC50 turn out when Cc1ccc(-c2cc(C(F)F)nc(S(C)(=O)=O)n2)cc1 was run?
A: Its IC50 is 6.96 µM.

Q: How did the IC50 turn out when COc1ccccc1C1=NOC(COC(=O)c2ccc([N+](=O)[O-])cc2)C1 (configuration not stated) was run?
A: The IC50 was 18.8 µM (inactive).

Q: How did the IC50 turn out when O=C(/C=C/Nc1ccccc1O)c1ccco1 was run?
A: Its IC50 is 2.02 µM.

Q: With CN(C)CCCN(C(=O)CCc1ccccc1)c1nc2ccc(Cl)cc2s1 as the compound, how does the IC50 read?
A: The IC50 was 12.7 µM (inactive).

Q: With N#Cc1ccc(-c2ccc(OCC(=O)Nc3cccnc3)cc2)cc1 as the compound, how does the IC50 read?
A: Its IC50 is 1.43 µM.

Q: For CN(C)C=C1C(=O)N(C2CCCCC2)C(=O)N(C2CCCCC2)C1=O, which IC50 is on record?
A: The IC50 was 1.57 µM.

Q: CCOC(=O)COc1ccc(C(=O)c2ccccc2)c(O)c1 was tested. Which IC50 did it give?
A: Its IC50 is 1.24 µM.

Q: How did the IC50 turn out when Cc1[nH]n2c(=O)c3c(nc2c1-c1ccccc1)CCCC3 was run?
A: The IC50 was 13.6 µM (inactive).

Q: With O=C(Nc1nnc(-c2ccc(Cl)cc2)o1)C1=COCCO1 as the compound, how does the IC50 read?
A: The IC50 was 14 µM (inactive).

Q: With C=C1Cn2c(nnc2-c2ccc(Cl)cc2)S1 as the compound, how does the IC50 read?
A: The IC50 was 12.8 µM (inactive).

Q: How did the IC50 turn out when O=C(Nc1ccc(N2CCN(C(=O)c3cccs3)CC2)cc1)c1ccc([N+](=O)[O-])o1 was run?
A: Its IC50 is 0.35 µM.

Q: Which IC50 does the source give for Cc1ccc2c(c1)c1c3n2CCN=C3CCC1 here?
A: Its IC50 is 15.2 µM (inactive).

Q: Which IC50 does the source give for Cc1cc(C)n(-c2nc(NCCN(C)C)c3c4c(sc3n2)CCCC4)n1 here?
A: The IC50 was 9.66 µM.

Q: How did the IC50 turn out when CC(C)C(=O)N1CCN(c2ccc(NC(=O)c3ccc([N+](=O)[O-])o3)cc2)CC1 was run?
A: Its IC50 is 1.24 µM.

Q: CC(C)Cc1nnc(NC(=O)CCS(=O)(=O)c2ccc(Cl)cc2)s1 was tested. Which IC50 did it give?
A: Its IC50 is 5.37 µM.

Q: Which IC50 does the source give for Cc1cc(C)nc(Sc2ncnc(N)c2[N+](=O)[O-])n1 here?
A: The IC50 was 10.7 µM (inactive).

Q: Cn1cccc1/C=N\NC(=O)C1COc2ccccc2O1 (configuration not stated) was tested. Which IC50 did it give?
A: Its IC50 is 13.2 µM (inactive).

Q: COc1cccc(-c2nnc(NC(=O)c3ccc(S(=O)(=O)N4CCOCC4)cc3)o2)c1 was tested. Which IC50 did it give?
A: Its IC50 is 18.7 µM (inactive).

Q: How did the IC50 turn out when Cc1ccc2oc(=O)c3cc(C(=O)NCCCN4CCCCCC4)sc3c2c1 was run?
A: The IC50 was 15.8 µM (inactive).

Q: With COc1ccc(-c2cc(=O)oc(-c3cccc(C)c3)n2)cc1 as the compound, how does the IC50 read?
A: The IC50 was 8.24 µM.

Q: For Cc1ccc(/C=N/NC(=O)C2COc3ccccc3O2)s1 (configuration not stated), which IC50 is on record?
A: Its IC50 is 0.7 µM.

Q: How did the IC50 turn out when Oc1ccccc1-c1nnc(COc2ccccc2)o1 was run?
A: Its IC50 is 11.2 µM (inactive).

Q: With CCCC(=O)Nc1cccc(-c2nc3ccccc3c(=O)o2)c1 as the compound, how does the IC50 read?
A: The IC50 was 0.97 µM.

Q: For Cc1ccc(NC(=O)CO/N=C/c2ccccc2C)c(C)c1, which IC50 is on record?
A: The IC50 was 13 µM (inactive).

Q: How did the IC50 turn out when COCCOC(=O)c1c(C)oc2ccc(OC(=O)c3ccco3)cc12 was run?
A: The IC50 was 9.15 µM.

Q: COc1ccc(Cc2nnc(SCc3ccc([N+](=O)[O-])cc3)o2)cc1 was tested. Which IC50 did it give?
A: The IC50 was 3.16 µM.

Q: Which IC50 does the source give for Cc1ccc(-c2nnc(C)c(N3CCCC3)n2)cc1 here?
A: The IC50 was 8.94 µM.
